Laboratory results reported in patent publication US20250296971A1, “GASTRIC INHIBITORY PEPTIDE RECEPTOR LIGANDS” (priority 2021, published 2025).
Like-named read-outs stand apart in the source and are kept apart here. *1 amine or outer side, *2 acyl side, *3 side chain or, on linkers, in order; H or OH if unused. Where a SMILES comes first, the peptide text is derived from it. Bridges are numbered along the chain shown (N, C = ends). [ ]: non-standard residue; d: D form. The star is where a group is joined. X16 = NC(=O)[C@H](CCCCNC(=O)CN1CCN2CCN3CCN(CC1)CC(=O)[O][Lu]([O]C(=O)C2)[O]C(=O)C3)NC(=O)CCC(=O)NCCCOCCOCCOCCCN*; X2 = O=C(O)CN1CCN(CC(=O)O)CCN(CC(=O)N[C@@H](CCC(=O)NC[C@H](O)[C@@H](O)[C@H](O)[C@H](O)CO)C(=O)*)CCN(CC(=O)O)CC1; X25 = NC(=O)C(CCCCNC(=O)CN1CCN(CC(=O)O)CCN(CC(=O)O)CCN(CC(=O)O)CC1)NC(=O)CCC(=O)NCCCOCCOCCOCCCN*; NH(1-deoxy-D-glucityl) = OC[C@@H](O)[C@@H](O)[C@H](O)[C@@H](O)CN*; Trp(5-Cl) = N[C@@H](Cc1c[nH]c2ccc(Cl)cc12)C(=O)O; Pyridine(2,6-diCH2) = c1cc(C[*:1])nc(C[*:2])c1; 2Nal = N[C@@H](Cc1ccc2ccccc2c1)C(=O)O; mXylylene = c1cc(C[*:1])cc(C[*:2])c1; Glutaryl = O=C(CCCC(=O)[*:2])[*:1]; Hyp = O=C(O)[C@@H]1C[C@@H](O)CN1; X1 = O=C(CN1CCC(N[*:1])CC1)[*:2]; pS = N[C@@H](COP(=O)(O)O)C(=O)O; Api = NC1(C(=O)O)CCNCC1; Thp = NC1(C(=O)O)CCOCC1; Aib = CC(C)(N)C(=O)O; Bn = c1ccc(C*)cc1

Target: T1, GIPR (CHO-K1-hGIPR cells) (Homo sapiens, UniProt P48546)
T1 construct: host or cells: CHO-K1
T1 sequence (P48546 22-466): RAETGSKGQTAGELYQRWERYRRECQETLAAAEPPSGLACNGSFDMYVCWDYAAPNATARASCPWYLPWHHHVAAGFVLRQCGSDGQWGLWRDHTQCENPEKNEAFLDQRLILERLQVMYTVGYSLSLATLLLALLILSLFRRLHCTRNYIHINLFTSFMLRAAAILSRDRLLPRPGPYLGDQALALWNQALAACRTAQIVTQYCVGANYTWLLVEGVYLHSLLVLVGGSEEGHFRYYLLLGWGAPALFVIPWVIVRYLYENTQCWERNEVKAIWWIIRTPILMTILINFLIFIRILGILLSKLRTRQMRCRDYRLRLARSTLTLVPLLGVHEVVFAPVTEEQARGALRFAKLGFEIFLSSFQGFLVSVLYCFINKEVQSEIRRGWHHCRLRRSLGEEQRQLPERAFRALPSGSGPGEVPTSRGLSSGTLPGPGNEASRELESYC
Assay: FACS binding assay
Outline: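 Peptide binding read by flow cytometry as APC-channel median fluorescence, fitted with a four-parameter logistic to yield EC50 or IC50. Cells were hGIPR-transfected CHO-K1 in PBS with 1% FCS, detected with 1 μg/mL APC-streptavidin, 30 min on ice.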

[1] = competition with 20 nM GIP-057, 4° C., 1 hour, read-out: pIC50 Category (converted)
[2] = competition with 20 nM GIP-057, 4° C. for 1 hour, read-out: pIC50 Category (converted)

Row | Compound | IC50 [1] [nM] | IC50 [2] [nM] | other results
1 | CC[C@H](C)[C@@H]1NC(=O)[C@H](CC(C)C)NC(=O)C2(CCN(C(=O)[C@H](CCC(=O)NC[C@H](O)[C@@H](O)[C@H](O)[C@H](O)CO)NC(=O)CN3CCN(CC(=O)O)CCN(CC(=O)O)CCN(CC(=O)O)CC3)CC2)NC(=O)[C@@H](NC(=O)[C@@H](CC(C)C)NC(=O)[C@H](CCC(=O)O)NC(=O)[C@@H]2C[C@@H](O)CN2C(=O)[C@H](Cc2c[nH]c3ccc(Cl)cc23)NC(=O)[C@H](Cc2c[nH]c3ccccc23)NC(=O)[C@H](CC(=O)O)NC(=O)CN2CCC(NC(=O)CCCC(=O)NC[C@H](O)[C@@H](O)[C@H](O)[C@H](O)CO)CC2)CSCc2cccc(n2)CSC[C@@H](C(=O)NC2CCN(CC(=O)N[C@H](CCC(=O)NC[C@H](O)[C@@H](O)[C@H](O)[C@H](O)CO)C(N)=O)CC2)NC1=O [GIP-043, AGLU-Glutar-APAc-Asp-Trp-5Clw-Hyp-Glu-leu-[Cys(2Lut)-Apc(DOTA-glu(AGLU))-Leu-Ile-Cys]-APAc-glu(AGLU)-NH2] ({NH(1-deoxy-D-glucityl)-Glutaryl}-[X1]DW[Trp(5-Cl)][Hyp]E[dL]C[Api](X2)LIC[X1][dE](NH(1-deoxy-D-glucityl))-NH2; linker 8-12 via Pyridine(2,6-diCH2)) | < 10 |  | 
2 | CC[C@H](C)[C@@H]1NC(=O)[C@H](CC(C)C)NC(=O)C2(CCOCC2)NC(=O)[C@@H](NC(=O)[C@@H](CC(C)C)NC(=O)[C@H](COP(=O)(O)O)NC(=O)[C@@H]2C[C@@H](O)CN2C(=O)[C@H](Cc2c[nH]c3ccc(Cl)cc23)NC(=O)[C@H](Cc2c[nH]c3ccccc23)NC(=O)[C@H](CC(=O)O)NC(C)=O)CSCc2cccc(n2)CSC[C@@H](C(N)=O)NC1=O [GIP-208, Ac-Asp-Trp-5Clw-Hyp-Pse-leu-[Cys(2Lut)-Thp-Leu-Ile-Cys]-NH2] (Ac-DW[Trp(5-Cl)][Hyp][pS][dL]C[Thp]LIC-NH2; linker 7-11 via Pyridine(2,6-diCH2)) | < 10 |  | 
3 | CC[C@H](C)[C@@H]1NC(=O)[C@H](CC(C)C)NC(=O)C(C)(C)NC(=O)[C@@H](NC(=O)[C@@H](CC(C)C)NC(=O)[C@H](CCC(=O)O)NC(=O)[C@@H]2CCCN2C(=O)[C@H](Cc2c[nH]c3ccc(Cl)cc23)NC(=O)[C@H](Cc2c[nH]c3ccccc23)NC(=O)[C@H](CC(=O)O)NC(C)=O)CSCc2cccc(c2)CSC[C@@H](C(=O)NCCCOCCOCCOCCCNC(=O)CCC(=O)N[C@@H](CCCCNC(=O)CN2CCN3CCN4CCN(CC2)CC(=O)[O][Lu]([O]C(=O)C3)[O]C(=O)C4)C(N)=O)NC1=O [GIP-156, Ac-Asp-Trp-5Clw-Pro-Glu-leu-[Cys(3MeBn)-Aib-Leu-Ile-Cys]-Ttds-Lys(LuDOTA)-NH2] (Ac-DW[Trp(5-Cl)]PE[dL]C[Aib]LIC-X16; linker 7-11 via mXylylene) |  |  | IC50 (pIC50 Category, competition with 20 nM GIP-057, 4° C., 1 hour): < 10 nM

Now from value to compound, other results behind:

Row | IC50 [1] [nM] | IC50 [2] [nM] | Compound | other results
4 | < 10 |  | CC[C@H](C)[C@@H]1NC(=O)[C@H](CCCNC(=N)N)NC(=O)C2(CCOCC2)NC(=O)[C@@H](NC(=O)[C@@H](CC(C)C)NC(=O)[C@H](CCC(=O)O)NC(=O)[C@@H]2C[C@@H](O)CN2C(=O)[C@H](Cc2c[nH]c3ccc(Cl)cc23)NC(=O)[C@H](Cc2c[nH]c3ccccc23)NC(=O)[C@H](CC(=O)O)NC(C)=O)CSCc2cccc(n2)CSC[C@@H](C(N)=O)NC1=O [GIP-230, Ac-Asp-Trp-5Clw-Hyp-Glu-leu-[Cys(2Lut)-Thp-Arg-Ile-Cys]-NH2] (Ac-DW[Trp(5-Cl)][Hyp]E[dL]C[Thp]RIC-NH2; linker 7-11 via Pyridine(2,6-diCH2)) | 
5 |  | > 1000 | CC[C@H](C)[C@H](NC(=O)[C@H](CC(C)C)NC(=O)[C@H](C)NC(=O)[C@H](CSC)NC(=O)[C@H](CC(C)C)NC(=O)[C@H](CCC(=O)O)NC(=O)[C@@H]1CCCN1C(=O)[C@H](Cc1c[nH]c2ccccc12)NC(=O)[C@H](Cc1c[nH]c2ccccc12)NC(=O)[C@H](CC(=O)O)NC(=O)[C@H](Cc1ccc(O)cc1)NC(=O)[C@@H](N)CCSC)C(=O)N[C@@H](CSCc1ccccc1)C(N)=O [GIP-369] (H-MYDWWPELC(Me)ALIC(Bn)-NH2) | 
6 |  | > 1000 | CC[C@H](C)[C@@H]1NC(=O)[C@H](CC(C)C)NC(=O)C(C)(C)NC(=O)[C@@H](NC(=O)[C@H](CC(C)C)NC(=O)[C@H](CCC(=O)O)NC(=O)[C@@H]2CCCN2C(=O)[C@H](Cc2ccc3ccccc3c2)NC(=O)[C@H](Cc2c[nH]c3ccccc23)NC(=O)[C@H](CC(=O)O)NC(C)=O)CSCc2cccc(c2)CSC[C@@H](C(=O)NCCCOCCOCCOCCCNC(=O)CCC(=O)NC(CCCCNC(=O)CN2CCN(CC(=O)O)CCN(CC(=O)O)CCN(CC(=O)O)CC2)C(N)=O)NC1=O (stereo partly drawn) [GIP-294, Ac-Asp-Trp-2Ni-Pro-Glu-Leu-[Cys(3MeBn)-Aib-Leu-Ile-Cys]-Ttds-Lys(DOTA)-NH2] (Ac-DW[2Nal]PELC[Aib]LIC-X25; linker 7-11 via mXylylene) | 
